Drawing on ChEMBL document CHEMBL1781994, “Estrogenic activity of chemical constituents from Tephrosia candida” (J Nat Prod, 2011), this text covers inhibition and IC50 for five compounds.

Bounds are passed on as bounds.

Test [1] concerns the target T1, Estrogen receptor (Homo sapiens) (UniProt P03372).
T1 sequence (whole entry): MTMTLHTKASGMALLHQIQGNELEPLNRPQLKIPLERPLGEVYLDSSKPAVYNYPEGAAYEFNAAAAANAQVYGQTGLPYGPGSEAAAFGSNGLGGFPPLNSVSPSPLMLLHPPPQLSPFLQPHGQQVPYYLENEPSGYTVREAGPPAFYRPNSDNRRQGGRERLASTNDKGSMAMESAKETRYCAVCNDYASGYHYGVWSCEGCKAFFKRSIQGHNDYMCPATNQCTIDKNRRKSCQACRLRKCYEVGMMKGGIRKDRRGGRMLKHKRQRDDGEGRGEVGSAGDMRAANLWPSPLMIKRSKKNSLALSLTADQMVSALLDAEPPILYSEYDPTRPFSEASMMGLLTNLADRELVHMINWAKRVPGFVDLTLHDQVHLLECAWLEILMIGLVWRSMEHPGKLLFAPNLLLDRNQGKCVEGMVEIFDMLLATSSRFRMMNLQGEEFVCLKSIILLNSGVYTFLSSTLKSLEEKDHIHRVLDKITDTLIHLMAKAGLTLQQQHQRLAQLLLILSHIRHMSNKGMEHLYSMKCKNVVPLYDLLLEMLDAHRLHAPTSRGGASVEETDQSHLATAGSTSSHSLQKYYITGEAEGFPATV
The test is described as follows: Inhibition of fluorescence-labeled 17beta-estradiol binding to ERalpha receptor at 5 mM after 2 hrs by fluorometric analysis.

Test [2] has as its target T2, Estrogen receptor (Homo sapiens, UniProt P03372).
T2 sequence (P03372 whole entry): T1 sequence (whole entry)
Description: Inhibition of fluorescence-labeled 17beta-estradiol binding to ERalpha receptor after 2 hrs by fluorometric analysis

The inhibition is the share of the control response that was lost under treatment. By IC50 is commonly meant the concentration needed to halve the response being measured.

In test [1], `COc1cc(O)c(/C=C\C(C)(C)O)c(O)c1C(=O)/C=C/c1ccc(O)cc1` [CANDIDACHALCONE] returned an inhibition of 95.1%. For the same compound, inhibition in test [2] was half-maximal at 80 µM (IC50).
Regarding `COc1ccc2c(c1)OC[C@]1(O)c3cc4c(cc3O[C@H]21)OCO4`, the inhibition in test [1] was 36.2%. This compound came in with an IC50 in test [2] greater than 5000 µM.
For `COc1cc(O)c(/C=C\C(C)(C)O)c2c1C(=O)C[C@@H](c1ccccc1)O2` [TEPHROCANDIDIN A], in that order: 70.1% and 3500 µM.
For `C=C1CC[C@@H](O)[C@]2(C)CC[C@@](O)(C(C)C)[C@H](O)[C@@H]12`, in that order: 67.3% and 2800 µM.
`COc1cc(O)c(/C=C\C(C)(C)O)c2c1C(=O)CC(c1ccc(O)cc1)O2` (stereo not given) [TEPHROCANDIDIN B] had an inhibition in test [1] of 86.2%. For the same compound, in test [2], the IC50 was determined as 1000 µM.
